Measurements as given in US7192591B2, “Pharmaceutical composition comprising an extract of Elfvingia applanata for the prevention and the treatment of diabetes and diabetic complications” (priority 2002, dated 2007).

Legend:
[1] = target: T1, rat lenses aldose reductase (Rattus norvegicus, UniProt P07943); assay: Rat lens aldose reductase inhibition (NADPH decrease at 340 nm, DL-glyceraldehyde substrate); assay type: biochemical, Sprague-Dawley rats
T1 construct: The supernatant fraction of the rat lens homogenate was prepared according to the procedure described in the literature; from tissue; host or cells: lenses of Sprague-Dawley rats
Method: Crude aldose reductase was prepared as follows: rat lenses were removed from Sprague-Dawley rats weighing 250˜280 g and frozen until use. […] Partially purified enzyme having its a specific activity of 6.5 U/mg was routinely used to test enzyme inhibition. The partially purified material was separated into 1.0 ml of aliquots and stored at −40° C.
Each 1.0 ml of cuvette containing equal units of enzyme, 0.1M sodium phosphate buffer (pH 6.2), 0.3 mM NADPH with or without 10 mM substrate and inhibitor was prepared.

[2] = test system: normal rats; assay: Oral glucose tolerance test in normal rats; assay type: in vivo, SD rats; conditions: extracts 300 mg/kg
Method: Prior to an oral glucose tolerance test, rats were fasted for 16 hours. And then saline for control group, 250 mg/kg of metformin, one of the biguanides drug for comparison group and each 300 mg/kg of Elfvingia applanata extracts, respectively, was orally administered to each group consisting of 10 rats. Thirty minutes later, 3 g/kg of glucose was orally administered to each rat with a feeding syringe. Blood samples were collected from carotid artery at (just before the oral administration of glucose), 60, 120, and 180 mins after glucose load for glucose assay.

[3] = test system: STZ-diabetic rats; assay: Sorbitol accumulation in red blood cell, lenses and sciatic nerves of STZ-diabetic rats; assay type: in vivo, SD rats; conditions: 2 weeks
Method: Diabetes mellitus was induced in male SD rats, weighing 220-250 g, by a single intraperitoneal injection of strptozotocin (Sigma chemical CO., St. Louis, Mo., USA) dissolved in phosphate buffered saline acidified to pH 4.5 with 0.05 M citric acid (66 mg/kg body wt). Control rats were injected with the vehicle only. The animals were fed standard Lab. Chows and water ad. Lib. throughout the experiments. Two weeks later, the diabetes-induced rats were used in following experiments. […] The extract was suspended in saline containing 0.5% carboxymethyl cellulose. The animals were then sacrificed under ether anesthesia. The contents of sorbitol in the red blood cell, sciatic nerves, and lenses were determined enzymatically. Sorbitol was measured by a modification of the enzymatic assay procedure described in the literature (Clements, R. S. et al.; Science, 166(908), pp1007-8, 1969). 0.5 ml of protein-free filtrate of tissues was added to a reaction mixture consisting of 1.0 ml of 0.05 M glycine buffer adjusted to pH 9.4 containing 0.2 mM nicotinamide adenine dinucleotide (NAD) and 0.64 U of sorbitol dehydrogenase. Blanks untreated with the filtrate, NAD, or sorbitol dehydrogenase, were routinely run simultaneously. The relative fluorescence due to NADH was measured with an excitation wavelength of 366 nm and an emission wavelength of 452 nm. Epalrestat used in the present invention is a conventional therapeutic drug for diabetic complications.

[4] = test system: STZ-diabetic rats; assay: Plasma glucose content in STZ-diabetic rats after 2 weeks of oral dosing; assay type: in vivo, Sprague-Dawley (SD) rats; conditions: 200 mg/kg/day intragastric
Method: All experiments were performed on Sprague-Dawley (SD) rats aged 10 weeks, weighed 200-250 g and purchased from the Seoul national university. The animals were acclimatized for 1-2 weeks before being used for the experiments. Standard pelleted diet and water were given ad libitum. Animals were maintained under constant 12 hours light and dark cycle and an environmental temperature ranging from 21 to 23° C. Diabetes mellitus was induced in male SD rats, weighing 220-250 g, by a single intraperitoneal injection of strptozotocin (Sigma chemical CO., St. Louis, Mo., USA) dissolved in phosphate buffered saline acidified to pH 4.5 with 0.05 M citric acid (66 mg/kg body wt). Control rats were injected with the vehicle only. The animals were fed standard Lab. Chows and water ad. Lib. throughout the experiments. Two weeks later, the diabetes-induced rats were used in following experiments. […] extracts were suspended in saline containing 0.5% carboxymethyl cellulose. The animals were then sacrificed under ether anesthesia and their blood samples were collected. Plasma glucose levels were determined by using a commercial kit.

With `O=C(O)CC1(CC(=O)O)CCCC1` [TMG, TetraMethylene Glutaric acid] the “Inhibition (%) of aldose reductase” value ([1]; concentration 0.1 μg/ml) was 40.6%, the “Inhibition (%) of aldose reductase” value ([1]; concentration 1 μg/ml) was 51.3% and the “Inhibition (%) of aldose reductase” value ([1]; concentration 10 μg/ml) was 76.4%. The IC50 ([1]; rat lens enzyme, pH 6.2, unit (μM) printed beside the value) was 0.46 µM.

In the case of `CN(C)C(=N)N=C(N)N` [Metformin, metformin], the “Glucose, 1 hr” value ([2]; 1 hr after 3 g/kg oral glucose load, metformin 250 mg/kg oral) is reported as 140.1 ± 7.0 mg/dL, the “Glucose, 2hr” value ([2]; 2 hr after 3 g/kg oral glucose load, metformin 250 mg/kg oral) is reported as 122.8 ± 1.4 mg/dL and the “Glucose, 3hr” value ([2]; 3 hr after 3 g/kg oral glucose load, metformin 250 mg/kg oral) is reported as 139.7 ± 4.5 mg/dL. The “Glucose, 0 hr” value ([2]; just before 3 g/kg oral glucose load, metformin 250 mg/kg oral 30 min earlier) was 54.5 ± 2.2 mg/dL.

For `CC(/C=C1\SC(=S)N(CC(=O)O)C1=O)=C\c1ccccc1` [Epalrestat], the “Sorbitol in the lenses” value ([3]; lenses, 200 mg/kg/day intragastric) was 0.38 ± 0.05 nmol/mg dry wt, the “Inhibition (%) of sorbitol accumulation in the lenses” value ([3]; lenses, 200 mg/kg/day) was 52.5% and the “Sorbitol in the red blood cell” value ([3]; red blood cell, 200 mg/kg/day intragastric) was 108.7 ± 11.6 nmol/g Hg. The “Inhibition (%) of sorbitol accumulation in the red blood cell” value ([3]; red blood cell, 200 mg/kg/day) was 75.0%, the “Sorbitol in the sciatic nerves” value ([3]; sciatic nerves, 200 mg/kg/day intragastric) was 4.3 ± 0.5 nmol/mg dry wt and the “Inhibition (%) of sorbitol accumulation in the sciatic nerves” value ([3]; sciatic nerves, 200 mg/kg/day) was 58.2%. The Plasma glucose [4] was 3.9 ± 0.2 g/L, the “Inhibition (%) of plasma glucose” value ([4]; vs control) was 31.6% and the inhibition at 0.001 µg/mL ([1]; concentration 0.001 μg/ml) was 35%. It also gave an inhibition at 0.01 µg/mL ([1]; concentration 0.01 μg/ml) of 60.2% and an inhibition at 0.1 µg/mL ([1]; concentration 0.1 μg/ml) of 100%.
